Experimental findings from ChEMBL document CHEMBL1201862, “PubChem BioAssay data set” (2004) are described below.

Active and inactive are the calls of the source.

The test system of assay [1] is CHO. As to the kind of experiment: CHO cell viability loss, potency – luminescence, cytotoxicity control for TLR9-MyD88 binding inhibitor project, dose response (AID 588339).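 Note: CHO cells stably coexpressing TLR9 and MyD88 fusions from primary screen; compound exposure lasted 48 hours before viability readout.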 The format is functional, cell-based, hamster. The note with it: Cricetulus griseus.
The target of assay [2] is Beta-galactosidase (Escherichia coli, UniProt Q8VNN2). In words: detection-enzyme interference by beta-gal modulators – biochemical, E. coli enzyme, set 3, artefact control for CCR6 antagonist project, dose response (AID 504712). The format is functional.
Sequence of Beta-galactosidase (Q8VNN2 whole entry): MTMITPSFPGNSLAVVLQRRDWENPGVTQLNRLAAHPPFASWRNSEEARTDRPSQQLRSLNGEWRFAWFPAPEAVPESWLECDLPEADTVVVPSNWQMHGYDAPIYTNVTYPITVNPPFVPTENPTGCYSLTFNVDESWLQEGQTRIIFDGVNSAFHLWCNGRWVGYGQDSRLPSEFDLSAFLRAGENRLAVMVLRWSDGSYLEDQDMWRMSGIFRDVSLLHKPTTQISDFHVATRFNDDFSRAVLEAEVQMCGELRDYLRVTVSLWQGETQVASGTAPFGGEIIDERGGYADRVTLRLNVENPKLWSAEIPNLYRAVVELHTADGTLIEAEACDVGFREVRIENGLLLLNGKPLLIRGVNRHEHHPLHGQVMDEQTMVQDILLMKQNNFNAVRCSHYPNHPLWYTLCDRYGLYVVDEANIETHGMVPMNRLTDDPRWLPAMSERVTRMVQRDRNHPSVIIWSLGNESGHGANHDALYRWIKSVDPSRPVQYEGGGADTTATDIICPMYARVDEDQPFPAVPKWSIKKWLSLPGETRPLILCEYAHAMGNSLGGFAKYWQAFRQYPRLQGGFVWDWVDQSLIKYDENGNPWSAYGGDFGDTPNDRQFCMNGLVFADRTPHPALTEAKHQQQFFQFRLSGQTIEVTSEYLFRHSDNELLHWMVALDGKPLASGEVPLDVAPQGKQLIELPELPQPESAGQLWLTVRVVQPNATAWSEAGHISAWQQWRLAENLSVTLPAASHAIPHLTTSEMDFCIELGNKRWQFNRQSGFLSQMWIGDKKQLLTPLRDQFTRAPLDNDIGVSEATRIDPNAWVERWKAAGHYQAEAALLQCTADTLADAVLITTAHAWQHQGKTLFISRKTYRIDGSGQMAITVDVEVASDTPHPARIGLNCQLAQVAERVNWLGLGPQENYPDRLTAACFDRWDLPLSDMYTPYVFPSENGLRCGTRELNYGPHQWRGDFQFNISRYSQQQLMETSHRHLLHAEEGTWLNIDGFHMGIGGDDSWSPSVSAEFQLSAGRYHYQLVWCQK
Assay [3] deals with T1, Beta Lactamase (Pseudomonas aeruginosa, UniProt Q932Y6). In words: BLA reporter interference, concentration series – BLA reporter cells, FRET fluorescence, artefact control for NOD2-RIPK2 interaction inhibitor project, dose response (AID 651552). The format is functional, cell-based.
T1 sequence (Q932Y6 whole entry): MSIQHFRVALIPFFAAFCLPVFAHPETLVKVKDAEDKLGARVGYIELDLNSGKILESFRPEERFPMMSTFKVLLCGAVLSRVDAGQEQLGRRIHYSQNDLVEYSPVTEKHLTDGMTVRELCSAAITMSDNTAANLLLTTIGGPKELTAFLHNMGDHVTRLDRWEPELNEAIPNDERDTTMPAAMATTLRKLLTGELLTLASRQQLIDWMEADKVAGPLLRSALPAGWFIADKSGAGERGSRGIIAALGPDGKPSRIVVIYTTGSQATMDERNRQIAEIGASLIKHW
Assay [4] has as its target T2, Protein Tat (Human immunodeficiency virus type 1 group M subtype B (isolate HXB2)(HIV-1), UniProt P04608).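 Note: tat binding to TAR RNA read out by fluorescence polarization.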
T2 sequence (P04608 whole entry): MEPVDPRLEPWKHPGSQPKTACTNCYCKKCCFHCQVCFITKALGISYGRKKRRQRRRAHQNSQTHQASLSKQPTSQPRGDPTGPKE
The class given is functional.

Assay [5] relates to Vero. In words: viability of Vero cells under compound – cytotoxicity control for flavivirus capping enzyme inhibitors (AID 588742). The format is functional. The following applies: Chlorocebus sabaeus.
Assay [6] in a line: general cell-killing toxicity readout – plate reader, dry powder samples, cytotoxicity control for PAX8 inhibitor project, dose response (AID 743021). The format is functional, cell-based.
The nature of assay [7]: viability loss in THP-1 monocytes – THP-1 cells, cytotoxicity control for Vif-APOBEC3G degradation inhibitor project, dose response (AID 1117359). The class given is functional. The following applies: THP-1.
Assay [8] addresses Paired box protein Pax-8 (Homo sapiens, UniProt Q06710). As to the kind of experiment: PAX8 transcriptional activity inhibition in RMG-I – RMG-I cells, luciferase, cherry-pick, dose response (AID 687027).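 Note: luciferase reporter driven by Pax8 target thyroperoxidase promoter measured by SteadyGlo luminescence.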 The class given is functional, cell-based.
Assay [9] deals with T1, Beta Lactamase. In words: BLA reporter interference, concentration series – BLA reporter cells, FRET fluorescence, artefact control for TLR9-MyD88 binding inhibitor project, dose response (AID 588341).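 Note: cell based assay in CHO-K1 cells stably expressing beta-lactamase.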 The format is cell-based.
Assay [10] in a line: Fluorescence-based cell-based high throughput dose response assay for inhibitors of the interaction of nucleotide-binding oligomerization domain containing 2 (NOD2) and the receptor-interacting serine-threonine kinase 2 (RIPK2). The format is functional. The note with it: Homo sapiens.
The target in assay [11] is Glucose-6-phosphate 1-dehydrogenase (Homo sapiens, UniProt P11413). As to the kind of experiment: inhibition of Homo sapiens G6PD, dose series – biochemical, fluorescence, selectivity assay for P. falciparum G6PD inhibitor project, dose response (AID 504792). The format is functional.
Sequence of Glucose-6-phosphate 1-dehydrogenase (P11413 whole entry): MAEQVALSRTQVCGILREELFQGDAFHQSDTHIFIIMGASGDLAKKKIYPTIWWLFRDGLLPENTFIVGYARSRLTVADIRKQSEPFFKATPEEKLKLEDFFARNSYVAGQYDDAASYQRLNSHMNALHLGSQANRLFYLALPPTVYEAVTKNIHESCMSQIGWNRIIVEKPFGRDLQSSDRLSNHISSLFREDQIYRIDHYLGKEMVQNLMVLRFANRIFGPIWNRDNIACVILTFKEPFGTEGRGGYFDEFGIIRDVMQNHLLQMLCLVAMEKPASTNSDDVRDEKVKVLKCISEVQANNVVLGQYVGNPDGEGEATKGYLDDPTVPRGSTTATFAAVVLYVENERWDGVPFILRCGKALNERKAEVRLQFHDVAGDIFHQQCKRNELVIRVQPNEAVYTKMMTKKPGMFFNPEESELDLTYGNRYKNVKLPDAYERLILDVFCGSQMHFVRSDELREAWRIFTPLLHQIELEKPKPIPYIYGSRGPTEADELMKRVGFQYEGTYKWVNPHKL
The target of assay [12] is Heat shock protein HSP 90-alpha (Homo sapiens, UniProt P07900). The class given is functional, organism-based.
Assay [13] addresses Genome polyprotein (dengue virus type 2, UniProt P29990). As to the kind of experiment: flavivirus cap methylation enzyme inhibition – biochemical, confirmation dose response, primary screen (AID 588689). The class given is functional.
Assay [14] is described as follows: human cervical cancer cell viability loss – 24 h, plate reader, dry powder, cytotoxicity control, dose response (AID 686928). The format is functional, cell-based. The note with it: HeLa.

Sequence of Genome polyprotein (P29990 2492-3391 limits assumed): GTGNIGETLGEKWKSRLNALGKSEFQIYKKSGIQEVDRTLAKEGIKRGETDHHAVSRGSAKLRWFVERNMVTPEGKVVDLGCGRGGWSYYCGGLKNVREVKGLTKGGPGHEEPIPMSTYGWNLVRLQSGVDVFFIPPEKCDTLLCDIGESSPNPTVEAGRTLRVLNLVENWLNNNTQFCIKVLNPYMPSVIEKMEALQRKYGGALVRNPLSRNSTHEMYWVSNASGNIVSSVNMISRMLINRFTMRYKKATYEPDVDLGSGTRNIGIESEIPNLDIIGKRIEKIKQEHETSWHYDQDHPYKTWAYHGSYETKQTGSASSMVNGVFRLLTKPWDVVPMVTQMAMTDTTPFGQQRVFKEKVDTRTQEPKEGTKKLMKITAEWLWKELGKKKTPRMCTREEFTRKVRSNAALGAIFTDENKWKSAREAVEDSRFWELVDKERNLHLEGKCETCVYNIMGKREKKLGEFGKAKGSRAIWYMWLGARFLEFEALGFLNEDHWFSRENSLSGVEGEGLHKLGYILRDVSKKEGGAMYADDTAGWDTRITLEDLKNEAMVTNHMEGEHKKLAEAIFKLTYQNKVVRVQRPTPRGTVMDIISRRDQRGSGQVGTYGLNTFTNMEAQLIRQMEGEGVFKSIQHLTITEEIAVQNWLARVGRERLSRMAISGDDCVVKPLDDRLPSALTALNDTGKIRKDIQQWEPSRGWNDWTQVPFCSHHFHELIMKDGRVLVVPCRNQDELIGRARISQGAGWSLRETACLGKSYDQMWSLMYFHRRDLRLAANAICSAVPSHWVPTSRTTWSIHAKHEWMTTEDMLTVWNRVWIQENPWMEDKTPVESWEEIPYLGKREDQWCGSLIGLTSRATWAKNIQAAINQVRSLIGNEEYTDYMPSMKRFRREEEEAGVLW
Sequence of Paired box protein Pax-8 (Q06710 whole entry): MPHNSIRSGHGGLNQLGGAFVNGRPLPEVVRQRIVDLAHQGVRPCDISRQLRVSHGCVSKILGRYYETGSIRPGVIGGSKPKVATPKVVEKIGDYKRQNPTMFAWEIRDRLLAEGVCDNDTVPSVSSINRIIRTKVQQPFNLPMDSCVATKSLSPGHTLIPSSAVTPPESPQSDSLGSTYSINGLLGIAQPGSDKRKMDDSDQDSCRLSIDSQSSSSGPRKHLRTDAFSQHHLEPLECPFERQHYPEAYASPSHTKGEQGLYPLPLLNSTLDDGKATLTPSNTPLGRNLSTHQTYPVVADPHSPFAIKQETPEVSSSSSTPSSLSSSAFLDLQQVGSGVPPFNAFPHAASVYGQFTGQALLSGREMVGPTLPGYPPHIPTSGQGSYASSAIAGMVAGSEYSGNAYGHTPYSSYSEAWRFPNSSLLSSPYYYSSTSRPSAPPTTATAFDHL

As usually defined, the IC50 is the concentration at which inhibition is half-maximal. As a reminder, the CC50 is the concentration giving 50% cytotoxicity. By AC50 is commonly meant the midpoint of the concentration-response curve, whichever way the signal moves. Take `CC1=C(O)C(=O)C=C2C1=CC=C1C2(C)CCC2(C)C3CC(C)(C(=O)O)CCC3(C)CCC12C` (centres undefined): the IC50 in assay [1] is 0.619 µM (active); in [2] it was > 66.6 µM (inactive); in assay [3] it was 38.1 µM (inactive); in assay [4], > 100 µM (active); in assay [9], 21.4 µM (inactive); in assay [10], 0.205 µM (active). Also, the IC50 in assay [11] was > 80 µM (inactive); in assay [13], 19.7 µM (active). For the same compound, the 50% cytotoxic concentration (CC50) in assay [5] is 1.43 µM (active); in assay [7], 1.01 µM (active). Besides, the concentration at half-maximal activity (AC50) in assay [6] is 26.1 µM (active); in [8], 2.41 µM (active); in assay [12], 1.41 µM (active).

Turning to `O=C1C(=O)N(Cc2cccc(Cl)c2)c2ccccc21`, in assay [14], the AC50 was 124 µM (active).
